Patent publication US7279325B2, “Method for identifying antagonist compounds of the estrogen-related receptor 3 (ERR3) by using the x-ray structural coordinates of the ligand binding domain” (priority 2002, dated 2007)
Changes are numbered by the printed parent chain.

What was measured:
[1] = target: T1, mutant ERR3 LBDs (A272F, A272L, F435L, L345I, L345I-F435L, L345I-F435L-F450L)/GST-SRC-1 RID complex (Homo sapiens, UniProt P62508, F435L); assay: In vitro protein-protein interaction assay, mutant ERR3 LBDs with SRC-1 RID (native gels); type: biochemical; conditions: 10^−4M 4-OHT
T1 construct: wt or mutant ERR3 LBDs (residues 229 to 458, human and murine receptor are identical); made in house; host or cells: E. coli BL21(DE3)
T1 sequence (P62508 229-458 F435L): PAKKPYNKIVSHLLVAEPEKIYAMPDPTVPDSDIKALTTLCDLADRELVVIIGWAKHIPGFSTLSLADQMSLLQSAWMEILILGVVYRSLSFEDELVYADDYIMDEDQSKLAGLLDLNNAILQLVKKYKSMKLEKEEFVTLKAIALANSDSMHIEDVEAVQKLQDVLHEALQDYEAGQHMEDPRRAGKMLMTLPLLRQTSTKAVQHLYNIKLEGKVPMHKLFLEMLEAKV
Procedure: The His-tagged wt or mutant ERR3 LBDs, the GST-tagged SRC-1 RID, and GST were expressed in E. coli BL21(DE3) and partially purified by affinity chromatography using TALON (Clontech) or Glutathione Sepharose 4B (Pharmacia), respectively. […] After purification the proteins were dialyzed in assay buffer (20 mM Tris.HCl pH 8.0, 200 mM NaCl), and concentrated. For the protein-protein interaction assays […] (about 70 pmol) of His-tagged wt or mutant ERR3 LBD were mixed with […] (about 100 pmol) of GST-tagged SRC-1 RID or […] of GST and incubated on ice for 10 mins. […] Protein complexes were resolved on native polyacrylamide gradient gels (8%-25%) using the Phast System (Pharmacia).
In vitro interaction assays with the RID (amino acids 617-764) of the coactivator SRC-1 has first been performed. Hexahistidine (His)-tagged ERR3, LBD and GST-tagged SRC-1 RID were partially purified by affinity chromatography, the proteins were mixed, and complex formation was monitored on native polyacrylamide gels. […] Complexes were separated on native polyacrylamide gradient gels.
In addition, the ligand-binding pocket of ERR3 has been enlarged by either mutating F435 to leucine or by introducing a triple point mutation (L345I-F435L-F450L) which creates an “ERα-like” ligand-binding pocket.

[2] = target: T2, Gal4-ERR3 (Homo sapiens, UniProt P62508); assay: Transient transfection luciferase reporter assay, Gal4-ERR3 in COS-1 cells; type: cell-based
T2 construct: expressed in transfected cells; host or cells: COS-1
T2 sequence (P62508 229-458): T1 sequence (P62508 229-458 F435L) with L207F
Procedure: (§1) FIG. 6: represents the transcriptional activities of wild-type and mutant ERR3 fusion proteins in transient transfection assays, wherein (A) COS-1 cells were transfected in 24-well plates with 250 ng per well of Gal4(5×)-TATA-LUC reporter and 50 ng of wt or mutant pCMX-Gal4-ERR3 expression plasmid. […] (B) Experiments were performed as described in (A) using 250 ng per well of Gal4(3×)-TK-LUC reporter plasmid and 50 ng of wt or mutant Gal4-ERR3 expression plasmid. […] FIGS. A to C represent an average of three independent experiments. The activity of the Gal4 DBD control was set to one.
(§2) COS-1 and BHK cells were cultured in DMEM supplemented with 5% FCS, penicillin, streptomycin, and glutamine. Neuro2A cells were cultured in EMEM supplemented with 10% FCS, penicillin, streptomycin, glutamine, and non-essential amino acids. Transient transfection assays were carried out in 24-well plates (0.5×10^5 cells per well for COS-1 and Neuro2A cells, 0.25×10^5 cells per well for BHK cells) using the standard calcium phosphate coprecipitation technique as described in Greiner et al. (Greiner et al., 1996). Cells were transfected with 250 ng of Gal4(5×)-TATA-LUC, Gal4(3×)-TK-LUC, or ERE(2×)-TK-LUC reporter plasmid and 50 ng per well of pCMX-Gal4-ERR3 or pCMX-ERR3 expression plasmid. The empty plasmids pCMX-Gal4 and pCMX served as control. […]

[3] = system: Gal4-ERR3 mutants (A272F, A272L, F435L, L345I-F435L-F450L); assay: Transient transfection luciferase reporter assay, Gal4-ERR3 mutants in COS-1 cells; type: cell-based, human; conditions: 10^−6M 4-OHT
Procedure: as §1, §2

[4] = target: full length ERR3 (Homo sapiens, UniProt P62508); assay: Transient transfection assay, full length ERR3 with ERE(2×)-TK-LUC reporter; type: cell-based; conditions: in the presence of 4-OHT
Procedure: COS-1 and BHK cells were cultured in DMEM supplemented with 5% FCS, penicillin, streptomycin, and glutamine. Neuro2A cells were cultured in EMEM supplemented with 10% FCS, penicillin, streptomycin, glutamine, and non-essential amino acids. Transient transfection assays were carried out in 24-well plates (0.5×10^5 cells per well for COS-1 and Neuro2A cells, 0.25×10^5 cells per well for BHK cells) using the standard calcium phosphate coprecipitation technique as described in Greiner et al. (Greiner et al., 1996). Cells were transfected with 250 ng of Gal4(5×)-TATA-LUC, Gal4(3×)-TK-LUC, or ERE(2×)-TK-LUC reporter plasmid and 50 ng per well of pCMX-Gal4-ERR3 or pCMX-ERR3 expression plasmid. The empty plasmids pCMX-Gal4 and pCMX served as control. […] Luciferase activity was assayed as described in Greiner et al. (1996). All experiments were repeated at least three times. B. Results B.1.

[5] = target: T3, ERR3 (Homo sapiens, UniProt P62508); conditions: Coward et al. (2001); cited from earlier work
T3 sequence (P62508 1-458): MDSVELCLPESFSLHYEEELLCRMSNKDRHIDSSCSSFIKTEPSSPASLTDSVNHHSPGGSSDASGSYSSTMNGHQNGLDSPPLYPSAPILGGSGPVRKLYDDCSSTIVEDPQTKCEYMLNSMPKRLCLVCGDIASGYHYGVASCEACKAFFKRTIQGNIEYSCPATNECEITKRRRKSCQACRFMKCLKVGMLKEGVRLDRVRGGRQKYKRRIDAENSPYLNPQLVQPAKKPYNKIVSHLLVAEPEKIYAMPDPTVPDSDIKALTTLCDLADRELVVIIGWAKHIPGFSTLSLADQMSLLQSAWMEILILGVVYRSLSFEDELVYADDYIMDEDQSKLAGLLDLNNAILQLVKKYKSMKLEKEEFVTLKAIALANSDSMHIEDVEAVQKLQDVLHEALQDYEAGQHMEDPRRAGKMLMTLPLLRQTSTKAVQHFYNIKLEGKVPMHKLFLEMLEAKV

## 4-hydroxytamoxifen [4-OHT]
[1]
  effect on the ERR3(F435L)/GST-SRC-1 RID complex: still disrupted
[2]; 10^−6M 4-OHT, Gal4(5×)-TATA-LUC reporter
  activity of Gal4-ERR3: blocked efficiently
[2]; Gal4(3×)-TK-LUC reporter
  repression of the constitutive activity of Gal4-ERR3 below basal levels of the TK promoter: neither 4-OHT nor DES repress
[3]
  transcriptional activity of Gal4-ERR3(F435L) and Gal4-ERR3(L345I-F435L-F450L): antagonizes
[4]
  active repression of transcription of the TK promoter by full length ERR3: does not actively repress transcription
[5]
  affinities of binding to ERR3: submicromolar
